19 compounds from patent US10759766B2, “Certain chemical entities, compositions, and methods” (NeuPharma, Inc., priority 2011, dated 2020) can be followed below.

pIC50: −log10 of the molar value.

In test [1] the target is BRAF V600E (Homo sapiens (Human), UniProt P15056, V600E). Nature of the test: Z′-LYTE kinase inhibition assay (Invitrogen), BRAF V600E. It is filed as biochemical. The settings on record: 1 μM compound, Z′-LYTE method; read-out: % inhibition at 1 μM against BRAF V600E. The procedure, abridged:
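FRET-based Z′-LYTE peptide phosphorylation format in 50 mM HEPES pH 7.5, 0.01% BRIJ-35, 10 mM MgCl2, 1 mM EGTA with ATP. Kinase reaction 60 min at room temperature, then protease development step 60 min at room temperature before fluorescence read. IC50 from compound concentration versus percent inhibition.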

Test [2] has as its target KDR (VEGFR2) (Homo sapiens (Human), UniProt P35968). Nature of the test: Z′-LYTE kinase inhibition assay (Invitrogen), KDR. Type of test: biochemical. The settings on record: 1 μM compound, Z′-LYTE method; read-out: % inhibition at 1 μM against KDR. The procedure, abridged:
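Z′-LYTE FRET assay: 10 μL reactions with 0.5–11.7 ng KDR and 2 μM Tyr 01 peptide in 50 mM HEPES pH 7.5, 10 mM MgCl2, 1 mM EGTA, 0.01% BRIJ-35, 1 h at room temperature. Development Reagent B (1:256) added for 60 min, fluorescence read; IC50 from concentration–inhibition curves.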

Test [3] relates to A375 cells. Nature of the test: Inhibition of cancer cell growth, MTT assay, A375. Type of test: cell-based. The settings on record: Homo sapiens, A-375, 72 h exposure. As for the experimental part: Inhibition of cell growth by compounds was measured using MTT assay (Mosmann, T., Journal of Immunological Methods, 1983, 65, 55-63). Tumor cell lines were purchased from ATCC (American Type Culture Collection, Manassas, Va.). All cell lines were maintained in RPMI 1640 (Hyclone) supplemented with 10% fetal bovine serum (FBS, Hyclone), glutamine (2 mM, Hyclone), and antibiotics (penicillin 100 U/mL and streptomycin 50 μg/mL) at 37° C. in a humidified atmosphere of 5% CO2 in air. Taxol (as a positive control, Sigma) and compounds were dissolved in DMSO (Sigma), and the final concentration of DMSO in the medium was 1%. Tumor cells were plated in 96-well plates at densities of about 4000 cells/well of a 96-well plate and allowed to adhere/grow for 24 h. They were then treated with various concentrations of drug for 72 h. 3-(4,5-Dimethylthiazol-2-yl)-2,5-diphenyltetrazolium bromide (MTT, Sigma) was used to determine the number of viable cells at the time of compound addition and the number of cells remaining after 72 h compound exposure. The number of cells remaining after 72 h was compared to the number of viable cells at the time of compound addition by measuring the absorbance at 570 nm, allowing for the calculation of growth inhibition.
All concentrations of compounds were tested in triplicate and controls were averaged over 4 wells. IC50 was calculated by plotting the concentration of compound vs the percentage of inhibition in treated wells using GraphPad Prism 5. […] The scale utilized in Table 6 is as follows: +++ less than 1000 nM; ++ between 1000 nM and 5000 nM; and + greater than 5000 nM. The scale utilized in Table 7 is as follows: +++ less than 2000 nM; ++ between 2000 nM and 5000 nM; and + greater than 5000 nM.

The test system of test [4] is A549 cells. Put plainly: Inhibition of cancer cell growth, MTT assay, A549. It is filed as cell-based. The following applies: Homo sapiens, A549, 72 h exposure. The procedure, abridged:
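IC50 derived from percent growth inhibition versus concentration, tested in triplicate. Growth inhibition came from MTT read at 570 nm after 72 h drug exposure, relative to viable cells at dosing. Cells (about 4000/well, RPMI 1640 + 10% FBS) adhered 24 h before treatment; final DMSO 1%.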

KDR (VEGFR2), sequence (P35968 20-1356): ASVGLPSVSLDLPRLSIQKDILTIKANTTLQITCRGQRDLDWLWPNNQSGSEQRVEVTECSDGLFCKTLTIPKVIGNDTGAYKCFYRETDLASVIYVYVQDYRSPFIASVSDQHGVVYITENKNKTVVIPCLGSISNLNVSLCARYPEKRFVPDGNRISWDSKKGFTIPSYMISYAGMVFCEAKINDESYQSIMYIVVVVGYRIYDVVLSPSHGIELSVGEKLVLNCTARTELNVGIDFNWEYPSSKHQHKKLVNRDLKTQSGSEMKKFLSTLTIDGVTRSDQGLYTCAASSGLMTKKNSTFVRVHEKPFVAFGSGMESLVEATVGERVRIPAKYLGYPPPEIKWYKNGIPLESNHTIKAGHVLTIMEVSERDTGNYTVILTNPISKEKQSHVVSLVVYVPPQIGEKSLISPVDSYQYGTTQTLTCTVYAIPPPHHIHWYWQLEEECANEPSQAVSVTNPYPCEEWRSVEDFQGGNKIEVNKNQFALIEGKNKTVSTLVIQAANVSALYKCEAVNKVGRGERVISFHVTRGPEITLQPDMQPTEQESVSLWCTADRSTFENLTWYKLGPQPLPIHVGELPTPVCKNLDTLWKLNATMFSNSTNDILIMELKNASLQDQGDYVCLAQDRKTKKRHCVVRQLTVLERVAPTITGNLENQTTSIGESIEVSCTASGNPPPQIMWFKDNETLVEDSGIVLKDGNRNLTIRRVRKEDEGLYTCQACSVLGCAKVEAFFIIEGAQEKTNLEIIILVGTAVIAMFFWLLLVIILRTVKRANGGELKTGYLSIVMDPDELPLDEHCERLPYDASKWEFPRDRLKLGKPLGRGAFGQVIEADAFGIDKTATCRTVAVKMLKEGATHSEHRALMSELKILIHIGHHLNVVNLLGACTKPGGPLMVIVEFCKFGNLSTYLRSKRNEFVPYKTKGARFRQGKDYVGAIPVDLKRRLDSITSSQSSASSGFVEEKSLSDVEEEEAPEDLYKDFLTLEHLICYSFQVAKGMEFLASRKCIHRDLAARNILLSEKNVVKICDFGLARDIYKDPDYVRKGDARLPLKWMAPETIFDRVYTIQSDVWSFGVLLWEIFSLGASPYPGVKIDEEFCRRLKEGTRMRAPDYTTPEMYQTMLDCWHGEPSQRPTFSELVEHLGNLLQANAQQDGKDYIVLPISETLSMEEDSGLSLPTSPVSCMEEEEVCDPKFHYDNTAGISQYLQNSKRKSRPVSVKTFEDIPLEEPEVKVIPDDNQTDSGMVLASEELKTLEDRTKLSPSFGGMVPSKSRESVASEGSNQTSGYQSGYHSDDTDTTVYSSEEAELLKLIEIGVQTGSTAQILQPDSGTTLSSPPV
BRAF V600E, sequence (P15056 whole entry V600E): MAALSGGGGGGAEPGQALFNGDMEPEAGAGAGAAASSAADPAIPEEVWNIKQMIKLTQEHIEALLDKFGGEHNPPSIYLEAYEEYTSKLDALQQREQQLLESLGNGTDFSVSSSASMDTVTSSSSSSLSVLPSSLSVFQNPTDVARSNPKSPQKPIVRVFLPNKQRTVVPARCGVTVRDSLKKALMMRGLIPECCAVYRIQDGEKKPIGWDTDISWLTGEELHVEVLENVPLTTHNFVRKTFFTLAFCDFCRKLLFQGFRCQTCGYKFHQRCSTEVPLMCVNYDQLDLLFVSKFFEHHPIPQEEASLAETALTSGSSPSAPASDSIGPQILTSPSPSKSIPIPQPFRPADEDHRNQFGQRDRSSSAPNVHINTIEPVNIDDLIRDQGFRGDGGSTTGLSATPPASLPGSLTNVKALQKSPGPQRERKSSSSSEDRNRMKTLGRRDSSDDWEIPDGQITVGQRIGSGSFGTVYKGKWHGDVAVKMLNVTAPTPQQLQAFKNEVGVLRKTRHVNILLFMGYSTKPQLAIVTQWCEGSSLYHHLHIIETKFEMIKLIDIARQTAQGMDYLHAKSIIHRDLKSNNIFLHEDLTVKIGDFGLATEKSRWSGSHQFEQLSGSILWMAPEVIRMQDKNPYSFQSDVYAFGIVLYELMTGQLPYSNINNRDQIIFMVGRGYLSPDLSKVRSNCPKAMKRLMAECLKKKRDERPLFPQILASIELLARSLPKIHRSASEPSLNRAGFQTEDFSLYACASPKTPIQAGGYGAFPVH

With `O=C(Nc1cc(F)cc(C(=O)c2ccc3nccnc3c2)c1)c1ccc(Cl)c(C(F)(F)F)c1` [Compound C127, 4-chloro-N-(3-fluoro-5-(quinoxaline-6-carbonyl)phenyl)-3-(trifluoromethyl)benzamide], the inhibition at 1 µM in test [1] was 70 to 89%; in test [2], less than 70%. The negative-log IC50 (pIC50) in test [3] and in test [4] was less than 5.30 each time.

On to `O=C(Nc1ccc(F)c(F)c1)Nc1ccc(F)c(C(=O)c2ccc3nccnc3c2)c1` [Compound C071, 1-(3,4-difluorophenyl)-3-(4-fluoro-3-(quinoxaline-6-carbonyl)phenyl)urea], for which the inhibition at 1 µM is more than 89% in test [1] and less than 70% in test [2]. Further, the pIC50 in test [3] is 5.30 to 6.00; in test [4] it was less than 5.30.

In the case of `O=C(Nc1cccc(F)c1)Nc1ccc(F)c(C(=O)c2ccc3nccnc3c2)c1` [Compound C013, 1-(4-fluoro-3-(quinoxaline-6-carbonyl)phenyl)-3-(3-fluorophenyl)urea], the inhibition at 1 µM was more than 89% in test [1] and 70 to 89% in test [2]. For the same compound, the pIC50 was 5.30 to 6.00 in test [3] and 5.30 to 5.70 in test [4].

For `O=C(Nc1cccc(F)c1)Nc1ccc(F)c(C(=O)c2ccc3nccnc3c2)c1F` [Compound C011, 1-(2,4-difluoro-3-(quinoxaline-6-carbonyl)phenyl)-3-(3-fluorophenyl)urea], the values for the inhibition at 1 µM in test [1] and in test [2] were 70 to 89% and less than 70%, respectively. Moreover, the pIC50 in test [3] and in test [4] was less than 5.30 each time.

Regarding `O=C(Nc1cc(F)cc(C(=O)c2ccc3ncc(N4CCOCC4)nc3c2)c1)Nc1ccc(Cl)c(F)c1` [Compound C051, 1-(4-chloro-3-fluorophenyl)-3-(3-fluoro-5-(3-morpholinoquinoxaline-6-carbonyl)phenyl)urea], the values for the inhibition at 1 µM in test [1] and in test [2] were more than 89% and less than 70%, respectively. The negative logarithm of the IC50 (pIC50) in test [3] was 5.30 to 6.00; in test [4], 5.30 to 5.70.

In the case of `O=C(Nc1ccc(Cl)cc1)Nc1ccc(F)c(C(=O)c2ccc3ncc(N4CCOCC4)nc3c2)c1` [Compound C054, 1-(4-chlorophenyl)-3-(4-fluoro-3-(3-morpholinoquinoxaline-6-carbonyl)phenyl)urea], the inhibition at 1 µM in test [1] and in test [2] was more than 89% throughout. The values for the pIC50 in test [3] and in test [4] were more than 6.00 and more than 5.70, respectively.

With `O=C(Nc1cc(F)c(F)c(C(=O)c2ccc3nccnc3c2)c1F)c1ccc(Cl)c(C(F)(F)F)c1` [Compound C140, 4-chloro-N-(2,4,5-trifluoro-3-(quinoxaline-6-carbonyl)phenyl)-3-(trifluoromethyl)benzamide], the figures for the inhibition at 1 µM in test [1] and in test [2] were 70 to 89% and less than 70%, respectively. Also, the pIC50 in test [3] and in test [4] was less than 5.30 throughout.

Take `O=C(Nc1ccc(Cl)c(C(F)(F)F)c1)Nc1ccc(F)c(C(=O)c2ccc3nccnc3c2)c1F` [Compound C012, 1-(4-chloro-3-(trifluoromethyl)phenyl)-3-(2,4-difluoro-3-(quinoxaline-6-carbonyl)phenyl)urea]: the inhibition at 1 µM in test [1] and in test [2] was less than 70% throughout. Moreover, the pIC50 was 5.30 to 6.00 in test [3] and more than 5.70 in test [4].

For the compound `O=C(Nc1cc(F)cc(Cl)c1)Nc1cc(F)cc(C(=O)c2ccc3nccnc3c2)c1` [Compound C062, 1-(3-chloro-5-fluorophenyl)-3-(3-fluoro-5-(quinoxaline-6-carbonyl)phenyl)urea], the inhibition at 1 µM in test [1] is more than 89%; in test [2] it was less than 70%. The pIC50 was less than 5.30 in test [3] and 5.30 to 5.70 in test [4].

Consider `O=C(Nc1cc(F)cc(C(=O)c2ccc3ncc(N4CCOCC4)nc3c2)c1)Nc1ccc(Cl)c(Cl)c1` [Compound C050, 1-(3,4-dichlorophenyl)-3-(3-fluoro-5-(3-morpholinoquinoxaline-6-carbonyl)phenyl)urea], for which the inhibition at 1 µM in test [1] is more than 89%; in test [2], 70 to 89%. Besides, the negative-log IC50 (pIC50) was more than 6.00 in test [3] and more than 5.70 in test [4].

As to `Cn1cc(-c2cnc3ccc(C(=O)c4cccc(NC(=O)c5ccc(Cl)c(C(F)(F)F)c5)c4)cc3n2)cn1` [Compound C130, 4-chloro-N-(3-(3-(1-methyl-1H-pyrazol-4-yl)quinoxaline-6-carbonyl)phenyl)-3-(trifluoromethyl)benzamide], the inhibition at 1 µM in test [1] and in test [2] was more than 89% each time. The values for the pIC50 in test [3] and in test [4] were 5.30 to 6.00 and more than 5.70, respectively.

For the compound `O=C(Nc1ccc(Cl)c(F)c1)Nc1ccc(F)c(C(=O)c2ccc3ncc(N4CCOCC4)nc3c2)c1` [Compound C052, 1-(4-chloro-3-fluorophenyl)-3-(4-fluoro-3-(3-morpholinoquinoxaline-6-carbonyl)phenyl)urea], the inhibition at 1 µM in test [1] was more than 89%; in test [2], 70 to 89%. The pIC50 in test [3] was more than 6.00; in test [4], more than 5.70.

Take `NCCNc1cnc2ccc(C(=O)c3cc(NC(=O)Nc4ccc(F)cc4)ccc3F)cc2n1` [Compound C089, 1-(3-(3-((2-aminoethyl)amino)quinoxaline-6-carbonyl)-4-fluorophenyl)-3-(4-fluorophenyl)urea]: the inhibition at 1 µM in test [1] and in test [2] was more than 89% in each case. Further, the pIC50 in test [3] was 5.30 to 6.00; in test [4] it was less than 5.30.

On to `COc1cnc2ccc(C(=O)c3cc(NC(=O)Nc4cccc(F)c4)ccc3F)cc2n1` [Compound C083, 1-(4-fluoro-3-(3-methoxyquinoxaline-6-carbonyl)phenyl)-3-(3-fluorophenyl)urea], for which the inhibition at 1 µM in test [1] was more than 89%; in test [2] it was 70 to 89%. In addition, the pIC50 is 5.30 to 6.00 in test [3] and less than 5.30 in test [4].

For `O=C(Nc1cc(F)cc(C(=O)c2ccc3ncc(N4CCOCC4)nc3c2)c1)Nc1ccc(F)c(F)c1` [Compound C049, 1-(3,4-difluorophenyl)-3-(3-fluoro-5-(3-morphlinoquinoxaline-6-carbonyl)phenyl)urea], the inhibition at 1 µM in test [1] was more than 89%; in test [2] it was less than 70%. Besides, the pIC50 in test [3] was 5.30 to 6.00; in test [4] it was 5.30 to 5.70.

As to `O=C(Nc1cccc(F)c1)Nc1cc(F)cc(C(=O)c2ccc3ncc(N4CCOCC4)nc3c2)c1` [Compound C037, 1-(3-fluoro-5-(3-morpholinoquinoxaline-6-carbonyl)phenyl)-3-(3-fluorophenyl)urea], the values for the inhibition at 1 µM in test [1] and in test [2] were more than 89% and less than 70%, respectively. The negative logarithm of the IC50 (pIC50) in test [3] was 5.30 to 6.00; in test [4], less than 5.30.

`O=C(Nc1ccc(F)c(Cl)c1)Nc1ccc(F)c(C(=O)c2ccc3nccnc3c2)c1` [Compound C073, 1-(3-chloro-4-fluorophenyl)-3-(4-fluoro-3-(quinoxaline-6-carbonyl)phenyl)urea]: the inhibition at 1 µM in test [1] and in test [2] was more than 89% throughout. Further, the pIC50 in test [3] is 5.30 to 6.00; in test [4], less than 5.30.

For the compound `O=C(Nc1cc(F)cc(C(=O)c2ccc3ncc(N4CCOCC4)nc3c2)c1)Nc1ccc(F)c(Cl)c1` [Compound C044, 1-(3-chloro-4-fluorophenyl)-3-(3-fluoro-5-(3-morpholinoquinoxaline-6-carbonyl)phenyl)urea], the inhibition at 1 µM was more than 89% in test [1] and 70 to 89% in test [2]. Further, the pIC50 in test [3] is 5.30 to 6.00; in test [4], 5.30 to 5.70.

Turning to `O=C(Nc1ccc(F)cc1)Nc1ccc(F)c(C(=O)c2ccc3nccnc3c2)c1` [Compound C070, 1-(4-fluoro-3-(quinoxaline-6-carbonyl)phenyl)-3-(4-fluorophenyl)urea], the inhibition at 1 µM in test [1] and in test [2] was more than 89% in each case. Moreover, the pIC50 in test [3] was 5.30 to 6.00; in test [4], less than 5.30.
